Like-named read-outs stand apart in the source and are kept apart here.
Legend:
A2780cis cell lines = test: Combination of 1a with other anti-cancer agents; assay type: cell-based, human; conditions: mixture of 1a with TIC10, Apo2L/TRAIL or doxorubicin
Experimental: In addition, 1a causes down regulation of cell survival proteins, Akt (Alexander, “Inhibiting the Akt Pathway in Cancer Treatment,” Pharmacy & Therapeutics 36(4): 225-227 (2011), which is hereby incorporated by reference in its entirety) and Src (Irby et al., “Role of Src Expression and Activation in Human Cancer,” Oncogene 19(49):5636-5642 (2000), which is hereby incorporated by reference in its entirety). Treatment of A2780cis cell lines with 1a (12.5 μM) for 24 hours downregulates expression of Src (FIGS. 13A-B) and Akt (FIGS. 13C-D). […] When used in combination with other anti-cancer agents, TIC10, Apo2L/TRAIL, and doxorubicin, a mixture of 1a with the individual anti-cancer agents was prepared, and then the cells were incubated with the mixture.

T98G glioblastoma cells = test: MTT assay, cell viability of T98G; assay type: cell-based; conditions: Homo sapiens, read-out: IC50 against T98G
Experimental: (§1) HeLa, Saos-2, HS-5, HepG2, T98G, and A2780 cells were purchased from American-type Culture Collection (ATCC, USA). A2780cis cell was purchased from Sigma. HeLa cells, HepG-2 cells, and T98G cells were cultured in MEM Medium supplemented with 10% v/v fetal bovine serum, 100 U/mL penicillin, and 100 μg/mL streptomycin. Saos-2 cells were cultured in McCoy's 5a Medium (for Saos-2) supplemented with 15% v/v fetal bovine serum, 100 U/mL penicillin, and 100 μg/mL streptomycin. HS-5 cells were cultured in Dulbecco's Modified Eagle's medium (DMEM) supplemented with 10% v fetal bovine serum (FBS), 100 U/mL penicillin, and 100 μg/mL streptomycin. A2780cis cells were cultured in RPMI 1640 Medium supplemented with 10% v/v fetal bovine serum, 100 U/mL penicillin, and 100 μg/mL streptomycin (cisplatin only necessary every 2-3 passages). All cells were maintained at 37° C. in a humidified atmosphere of 5% CO2.
(§2) An MTT assay was used to test the cytotoxicity. All different cell lines were seeded in 96-well plates at 1×10^5 cells/well for 24 hours followed by removal of the culture medium and subsequent addition of culture medium containing different concentrations of the precursors. […] The absorbance of each well at 595 nm was measured by a multimode microplate reader. […]

[1] = test system: Saos-2 osteosarcoma cells; test: MTT assay, cell viability of Saos-2; assay type: cell-based; conditions: Homo sapiens, read-out: IC50 against Saos-2
Experimental: as §1, §2

[2] = test system: cell death receptors (CD95, DR3, DR5, TNFR1, TNFR2) on A2780cis cells; test: Antibody staining of cell death receptors (CLSM); assay type: cell-based, human; conditions: 1a 12.5 μM, 12 or 24 hours
Experimental: Procedure recommended by ABCAM for antibody staining was used. Cells were seeded (100,000-200,000 cell/3.5 cm confocal dish) and attachment was allowed (24 hours). Cells were incubated with 12.5 μM of precursor 1a for 12 hours or 24 hours. Then the cells were washed with PBS buffer three times and fixed by 4% formaldehyde for 15 minutes. Fixed cells were then washed with PBS buffer three times and incubated in 1.0% BSA/10% normal goat serum/0.3M glycine in 0.1% PBS-Tween for 1 hour to permeabilize the cells and block non-specific protein-protein interactions. Then they were washed with PBS buffer three times and incubated with the primary antibody (diluted 1/100, overnight at 4° C.). Then they were washed with PBS buffer three times and exposed to the secondary antibody (ab150077 Alexa Fluor® 488 goat anti-rabbit IgG (H+L), green) at 2 μg/ml (diluted 1/1000) for 1 hour. Hoechst 33342 was used to stain the cell nuclei (blue). The sample was washed with PBS buffer three times and mounted for imaging.
Antibody staining was used to examine the extrinsic cell death signaling molecules induced by the assemblies of 1b. […]

[3] = test system: HepG2 human liver carcinoma cells; test: MTT assay, cell viability of HepG2; assay type: cell-based; conditions: read-out: IC50 against HepG-2
Experimental: as §1, §2

[4] = test system: ER stress markers and ROS in A2780cis and HeLa cells; test: Western blot of ER stress markers and CLSM detection of ROS; assay type: cell-based, human; conditions: 1a 12.5 μM, 12 hours for ROS
Experimental: Further exploration of the mode of action of 1a against A2780cis and HeLa cells was carried out via Western blot for the following ER stress markers: CHOP, Bip, PDI, IRE1α, Calnexin, Erol-Lα, PERK, and β-actin; or p-SAPK/JNK. Western blot was carried out via gel electrophoresis at […] for 1.5 hrs, and then transferring the protein on the gel to PVDF membranes for overnight at […] (4° C.). After that, the membrane was incubated with primary antibodies (obtained from Cell Signaling Technology) overnight at 4° C. The membrane was then incubated with secondary antibodies for 1 h at room temperature. This was followed by the reaction with ECL solutions for 10 minutes, and analysis of the results by autoradiography. Generation of ROS was detected in CLSM images via DHE emissions in exposed cells. CLSM imaging was carried out at the excitation of 543 nm and DHE emission was detected at the wavelength at 575 nm to 625 nm; or detection of anti-phospho-SRC and anti-phospho-Akt.

HeLa cells = test: MTT assay, cytotoxicity against HeLa; assay type: cell-based, human
Experimental: as §1
An MTT assay was used to test the cytotoxicity. All different cell lines were seeded in 96-well plates at 1×10^5 cells/well for 24 hours followed by removal of the culture medium and subsequent addition of culture medium containing different concentrations of the precursors. At designated time (24/48/72 hours), 10 μL MTT solution (5 mg/mL) was added to each well and incubated at 37° C. for another 4 hours, and then 100 μL of SDS-HCl solution was added to stop the reduction reaction and dissolve the purple formazan. The absorbance of each well at 595 nm was measured by a multimode microplate reader. The cytotoxicity assay was performed three times and the average value of the three measurements was taken.
To confirm that assemblies of the cholesterol conjugate are able to inhibit other cancer cell lines, 1a was incubated with HeLa cells, a widely studied malignant cervical cancer cell line.

With `CC(C)CCC[C@@H](C)C1CC[C@H]2[C@@H]3CC=C4CC(OC(=O)NC(Cc5ccc(OP(=O)(O)O)cc5)C(=O)O)CC[C@]4(C)[C@H]3CC[C@]12C` (stereo partly drawn) [1a, Cholesterol-(phospho)D-Tyr] the “effect of combination treatments” value (A2780cis cell lines) was “synergistic effects”, the IC50 (T98G glioblastoma cells; 48 hours) was 48 µM and the IC50 (T98G glioblastoma cells; 72 hours) was 37 µM. The IC50 ([1]; 48 hours) was 41 µM, the IC50 ([1]; 72 hours) was 26 µM and the “clustering of DR3 or TNF-R1” value [2] was “rather moderate”. For the same compound, the “clustering of DR5” value [2] was “significant clustering”, the IC50 ([3]; 48 hours) was 45 µM and the IC50 ([3]; 72 hours) was 35 µM. For the same compound, the “ER stress markers and ROS generation” value [4] was “induces cell apoptosis via ER stress and generation of ROS”, the “viability of HeLa cell treated by 1a with phosphatase or cell death signaling inhibitors” value (HeLa cells; 1a 12.5 μM + ALP, L-Phe, levamisole, zVAD-fmk, PJ34 or Nec-1, 48 hours) was “significantly increased the viability” and the IC50 (HeLa cells; 48 hours, read-out: IC50 against HeLa cell) was 19 µM. For the same compound, the IC50 (HeLa cells; Homo sapiens, HeLa, 48 h, read-out: IC50 against HeLa cell) was 18.6 µM, the IC50 (HeLa cells; Homo sapiens, HeLa, 72 h, read-out: IC50 against HeLa) was 16 µM and the “viability of HeLa cells” value (HeLa cells; treated by 1a, 24 hours) was “most HeLa cells were viable”.

Source: patent US11040108B2, “Amino acid- and peptide-steroid conjugates and use thereof” (BRANDEIS UNIVERSITY, priority 2016, dated 2021)
